From patent US12577206B2 (BRISTOL-MYERS SQUIBB COMPANY, priority 2020, dated 2026)

Molecular target: T1, human FPR2 (Homo sapiens, UniProt P25090)
T1 sequence (P25090 1-351): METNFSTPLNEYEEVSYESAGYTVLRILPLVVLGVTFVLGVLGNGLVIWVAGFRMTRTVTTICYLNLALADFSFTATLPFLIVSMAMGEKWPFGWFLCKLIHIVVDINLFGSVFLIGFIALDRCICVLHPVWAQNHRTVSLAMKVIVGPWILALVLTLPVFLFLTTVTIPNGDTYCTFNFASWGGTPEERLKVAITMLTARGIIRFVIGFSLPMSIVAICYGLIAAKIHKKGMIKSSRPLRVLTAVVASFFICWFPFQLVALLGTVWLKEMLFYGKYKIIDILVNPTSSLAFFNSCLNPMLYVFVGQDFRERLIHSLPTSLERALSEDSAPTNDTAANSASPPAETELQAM
Assay: FPR2 cyclic adenosine monophosphate (cAMP) assay
Format: cell-based
Conditions: CHO cells overexpressing human FPR2; forskolin 5 μM; inhibition of cAMP production; HTRF; read-out: hFPR2 cAMP2 EC50
Source text: (§1) N-formyl peptide receptors (FPRs) are a family of chemo attractant receptors that facilitate leukocyte response during inflammation. FPRs belong to the seven-transmembrane G protein-coupled receptor superfamily and are linked to inhibitory G-proteins (Gi). Three family members (FPR1, FPR2 and FPR3) have been identified in humans and are predominantly found in myeloid cells with varied distribution and have also been reported in multiple organs and tissues. After agonist binding, the FPRs activate a multitude of physiological pathways, such as intra cellular signaling transduction, Ca^2+ mobilization and transcription. The family interacts with a diverse set of ligands that includes proteins, polypeptides and fatty acid metabolites which activate both pro-inflammatory and pro-resolution downstream responses. FPR2 and FPR1 Cyclic Adenosine Monophosphate (cAMP) Assays were used to measure the in vitro activity of the compounds disclosed in this application.
(§2) FPR2 and FPR1 Cyclic Adenosine Monophosphate (cAMP) Assays. A mixture of forskolin (5 μM final for FPR2 or 10 μM final for FPR1) and IBMX (200 μM final) were added to 384-well Proxiplates (Perkin-Elmer) pre-dotted with test compounds in DMSO (1% final) at final concentrations in the range of 0.020 nM to 100 μM. Chinese Hamster Ovary cells (CHO) overexpressing human FPR1 or human FPR2 receptors were cultured in F-12 (Ham's) medium supplemented with 10% qualified FBS, 250 μg/mL zeocin and 300 μg/mL hygromycin (Life Technologies). Reactions were initiated by adding 2,000 human FPR2 cells per well or 4,000 human FPR1 cells per well in Dulbecco's PBS (with calcium and magnesium) (Life Technologies) supplemented with 0.1% BSA (Perkin-Elmer). The reaction mixtures were incubated for 30 min at rt. The level of intracellular cAMP was determined using the HTRF HiRange cAMP assay reagent kit (Cisbio) according to manufacturer's instruction. Solutions of cryptate conjugated anti-cAMP and d2 flurorophore-labeled cAMP were made in a supplied lysis buffer separately. Upon completion of the reaction, the cells were lysed with equal volume of the d2-cAMP solution and anti-cAMP solution. […] The potency and activity of a compound to inhibit cAMP production was then determined by fitting to a 4-parametric logistic equation from a plot of cAMP level versus compound concentrations.

Row | SMILES | EC50
1 | COc1cc(F)c(-c2c(NC(=O)c3ccc(OC(F)F)cc3)c(=O)n(-c3ccccc3)n2C)c(F)c1 [Example 1, N-[5-(2,6-difluoro-4-methoxyphenyl)-1-methyl-3-oxo-2-phenyl-2,3-dihydro-1H-pyrazol-4-yl]-4-(difluoromethoxy)benzamide] | 12 nM
2 | COc1cc(F)c(-c2c(NC(=O)c3ccc(OC(F)(F)F)cc3)c(=O)n(-c3cccc(F)c3)n2C)c(F)c1 [Example 2, N-[5-(2,6-difluoro-4-methoxyphenyl)-2-(3-fluorophenyl)-1-methyl-3-oxo-2,3-dihydro-1H-pyrazol-4-yl]-4-(trifluoromethoxy)benzamide] | 5 nM
3 | COc1cc(F)c(-c2c(NC(=O)c3ccc(OC(F)F)cc3)c(=O)n(-c3cccc(C)c3C)n2C)c(F)c1 [Example 3, N-[5-(2,6-difluoro-4-methoxyphenyl)-2-(2,3-dimethylphenyl)-1-methyl-3-oxo-2,3-dihydro-1H-pyrazol-4-yl]-4-(difluoromethoxy)benzamide] | 8 nM
4 | COc1cc(F)c(-c2c(NC(=O)c3ccc(OC(F)F)cc3)c(=O)n(-c3cc(C(F)F)ccn3)n2C)c(F)c1 [Example 76, N-[5-(2,6-difluoro-4-methoxyphenyl)-2-[4-(difluoromethyl)pyridin-2-yl]-1-methyl-3-oxo-2,3-dihydro-1H-pyrazol-4-yl]-4-(difluoromethoxy)benzamide] | 12 nM
5 | COc1cc(CO)nc(-n2c(=O)c(NC(=O)c3ccc(OC(F)F)cc3)c(-c3c(F)cc(OC)cc3F)n2C)c1 [Example 90, N-[5-(2,6-difluoro-4-methoxyphenyl)-2-[6-(hydroxymethyl)-4-methoxypyridin-2-yl]-1-methyl-3-oxo-2,3-dihydro-1H-pyrazol-4-yl]-4-(difluoromethoxy)benzamide] | 8 nM
6 | COc1cc(N2CCCC2)nc(-n2c(=O)c(NC(=O)c3ccc(OC(F)F)cc3)c(-c3c(F)cc(OC)cc3F)n2C)c1 [Example 91, N-(5-(2,6-difluoro-4-methoxyphenyl)-2-(4-methoxy-6-(pyrrolidin-1-yl)pyridin-2-yl)-1-methyl-3-oxo-2,3-dihydro-1H-pyrazol-4-yl)-4-(difluoromethoxy)benzamide] | 20 nM
7 | COc1cc(NCCO)nc(-n2c(=O)c(NC(=O)c3ccc(OC(F)F)cc3)c(-c3c(F)cc(OC)cc3F)n2C)c1 [Example 94, N-[5-(2,6-difluoro-4-methoxyphenyl)-2-{6-[(2-hydroxyethyl)amino]-4-methoxypyridin-2-yl}-1-methyl-3-oxo-2,3-dihydro-1H-pyrazol-4-yl]-4-(difluoromethoxy)benzamide] | 6 nM
8 | COc1cc(N2CC[C@@H](O)C2)nc(-n2c(=O)c(NC(=O)c3ccc(OC(F)F)cc3)c(-c3c(F)cc(OC)cc3F)n2C)c1 [Example 95, N-[5-(2,6-difluoro-4-methoxyphenyl)-2-{6-[(3R)-3-hydroxypyrrolidin-1-yl]-4-methoxypyridin-2-yl}-1-methyl-3-oxo-2,3-dihydro-1H-pyrazol-4-yl]-4-(difluoromethoxy)benzamide] | 8 nM
9 | COc1cc(N2CC(C)(O)C2)nc(-n2c(=O)c(NC(=O)c3ccc(OC(F)F)cc3)c(-c3c(F)cc(OC)cc3F)n2C)c1 [Example 96, N-[5-(2,6-difluoro-4-methoxyphenyl)-2-[6-(3-hydroxy-3-methylazetidin-1-yl)-4-methoxypyridin-2-yl]-1-methyl-3-oxo-2,3-dihydro-1H-pyrazol-4-yl]-4-(difluoromethoxy)benzamide] | 7 nM
10 | COc1cc(N2CC[C@H](F)C2)nc(-n2c(=O)c(NC(=O)c3ccc(OC(F)F)cc3)c(-c3c(F)cc(OC)cc3F)n2C)c1 [Example 98, N-[5-(2,6-difluoro-4-methoxyphenyl)-2-{6-[(3S)-3-fluoropyrrolidin-1-yl]-4-methoxypyridin-2-yl}-1-methyl-3-oxo-2,3-dihydro-1H-pyrazol-4-yl]-4-(difluoromethoxy)benzamide] | 6 nM
11 | COc1cc(N2CCC(F)(F)C2)nc(-n2c(=O)c(NC(=O)c3ccc(OC(F)F)cc3)c(-c3c(F)cc(OC)cc3F)n2C)c1 [Example 99, N-[5-(2,6-difluoro-4-methoxyphenyl)-2-[6-(3,3-difluoropyrrolidin-1-yl)-4-methoxypyridin-2-yl]-1-methyl-3-oxo-2,3-dihydro-1H-pyrazol-4-yl]-4-(difluoromethoxy)benzamide] | 4 nM
12 | COc1cc(N2CCN(C)CC2)nc(-n2c(=O)c(NC(=O)c3ccc(OC(F)F)cc3)c(-c3c(F)cc(OC)cc3F)n2C)c1 [Example 101, N-[5-(2,6-difluoro-4-methoxyphenyl)-2-[4-methoxy-6-(4-methylpiperazin-1-yl)pyridin-2-yl]-1-methyl-3-oxo-2,3-dihydro-1H-pyrazol-4-yl]-4-(difluoromethoxy)benzamide] | 3 nM

Second part, the compound after the results:

Row | EC50 | SMILES
13 | 1 nM | COc1cc(F)c(-c2c(NC(=O)c3ccc(OC(F)F)cc3)c(=O)n(-c3cccc(N4C[C@@H](C)N(C)[C@@H](C)C4)n3)n2C)c(F)c1 [Example 103, N-[5-(2,6-difluoro-4-methoxyphenyl)-1-methyl-3-oxo-2-{6-[(3R,5S)-3,4,5-trimethylpiperazin-1-yl]pyridin-2-yl}-2,3-dihydro-1H-pyrazol-4-yl]-4-(difluoromethoxy)benzamide]
14 | 1 nM | COc1cc(N2C3CCC2CN(C)C3)nc(-n2c(=O)c(NC(=O)c3ccc(OC(F)F)cc3)c(-c3c(F)cc(OC)cc3F)n2C)c1 [Example 105, N-[5-(2,6-difluoro-4-methoxyphenyl)-2-(4-methoxy-6-{3-methyl-3,8-diazabicyclo[3.2.1]octan-8-yl}pyridin-2-yl)-1-methyl-3-oxo-2,3-dihydro-1H-pyrazol-4-yl]-4-(difluoromethoxy)benzamide]
15 | 5 nM | COc1cc(N2CC(OC(C)C)C2)nc(-n2c(=O)c(NC(=O)c3ccc(OC(F)F)cc3)c(-c3c(F)cc(OC)cc3F)n2C)c1 [Example 106, N-[5-(2,6-difluoro-4-methoxyphenyl)-2-{4-methoxy-6-[3-(propan-2-yloxy)azetidin-1-yl]pyridin-2-yl}-1-methyl-3-oxo-2,3-dihydro-1H-pyrazol-4-yl]-4-(difluoromethoxy)benzamide]
16 | 5 nM | COc1cc(F)c(-c2c(NC(=O)c3ccc(OC(F)F)cc3)c(=O)n(-c3cccc(N4CCN(CCO)CC4)n3)n2C)c(F)c1 [Example 107, N-[5-(2,6-difluoro-4-methoxyphenyl)-2-{6-[4-(2-hydroxyethyl)piperazin-1-yl]pyridin-2-yl}-1-methyl-3-oxo-2,3-dihydro-1H-pyrazol-4-yl]-4-(difluoromethoxy)benzamide]
17 | 3 nM | COc1cc(OC)cc(-n2c(=O)c(NC(=O)c3ccc(OC(F)F)cc3)c(-c3c(F)cc(OC)cc3F)n2C)c1 [Example 108]
18 | 1 nM | COc1cc(C2CCNCC2)nc(-n2c(=O)c(NC(=O)c3ccc(OC(F)F)cc3)c(-c3c(F)cc(OC)cc3F)n2C)c1 [Example 367, N-(5-(2,6-Difluoro-4-methoxyphenyl)-2-(4-methoxy-6-(piperidin-4-yl)pyridin-2-yl)-1-methyl-3-oxo-2,3-dihydro-1H-pyrazol-4-yl)-4-(difluoromethoxy)benzamide]

Molecular target: T2, human FPR1 (Homo sapiens, UniProt P21462)
T2 sequence (P21462 1-350): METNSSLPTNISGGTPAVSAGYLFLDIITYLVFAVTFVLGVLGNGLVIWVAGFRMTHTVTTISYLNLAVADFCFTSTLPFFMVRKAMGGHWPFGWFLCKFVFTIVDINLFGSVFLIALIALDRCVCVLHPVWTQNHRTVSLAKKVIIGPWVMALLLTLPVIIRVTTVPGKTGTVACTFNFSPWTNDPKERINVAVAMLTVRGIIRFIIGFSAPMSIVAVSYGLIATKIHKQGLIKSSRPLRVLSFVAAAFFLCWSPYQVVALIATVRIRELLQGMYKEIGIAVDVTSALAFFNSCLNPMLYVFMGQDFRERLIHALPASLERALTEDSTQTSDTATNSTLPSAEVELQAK
Assay: FPR1 cyclic adenosine monophosphate (cAMP) assay
Format: cell-based
Conditions: CHO cells overexpressing human FPR1; forskolin 10 μM; inhibition of cAMP production; HTRF; read-out: hFPR1 cAMP2 EC50
Source text: as §1, §2

Row | EC50 | SMILES
19 | 2400 nM | COc1cc(F)c(-c2c(NC(=O)c3ccc(OC(F)F)cc3)c(=O)n(-c3ccccc3)n2C)c(F)c1 [Example 1, N-[5-(2,6-difluoro-4-methoxyphenyl)-1-methyl-3-oxo-2-phenyl-2,3-dihydro-1H-pyrazol-4-yl]-4-(difluoromethoxy)benzamide]
20 | 210 nM | COc1cc(F)c(-c2c(NC(=O)c3ccc(OC(F)(F)F)cc3)c(=O)n(-c3cccc(F)c3)n2C)c(F)c1 [Example 2, N-[5-(2,6-difluoro-4-methoxyphenyl)-2-(3-fluorophenyl)-1-methyl-3-oxo-2,3-dihydro-1H-pyrazol-4-yl]-4-(trifluoromethoxy)benzamide]
21 | 1900 nM | COc1cc(F)c(-c2c(NC(=O)c3ccc(OC(F)F)cc3)c(=O)n(-c3cccc(C)c3C)n2C)c(F)c1 [Example 3, N-[5-(2,6-difluoro-4-methoxyphenyl)-2-(2,3-dimethylphenyl)-1-methyl-3-oxo-2,3-dihydro-1H-pyrazol-4-yl]-4-(difluoromethoxy)benzamide]
22 | 25 nM | COc1cc(F)c(-c2c(NC(=O)c3ccc(OC(F)F)cc3)c(=O)n(-c3cc(OC(C)C)cc(OCCO)n3)n2C)c(F)c1 [Example 378, N-(5-(2,6-Difluoro-4-methoxyphenyl)-2-(6-(2-hydroxyethoxy)-4-isopropoxypyridin-2-yl)-1-methyl-3-oxo-2,3-dihydro-1H-pyrazol-4-yl)-4-(difluoromethoxy)benzamide]
